Results published in patent JP2022155560A, “スガマデクスの光分解抑制方法” (Fuji Pharma Co Ltd, priority 2021, dated 2022).

Legend:
[1] = Photostability of sugammadex sodium solution in glass containers with or without light-cutting film (Example 1, HPLC); assay type: physicochemical; conditions: for total amount of substances other than sugammadex: n=3
[2] = Formation of sugammadex photodegradant (disulfide, printed ジスルフィド体) on light irradiation (Example 2, HPLC); assay type: physicochemical; conditions: after light irradiation, n=3
[3] = after light irradiation (1,200,000 lux·h, 280 W·h/m2), UVcut 500 film compared with UVcut 400 film
[4] = after light irradiation (1,200,000 lux·h, 280 W·h/m2), film-wrapped samples (UVcut 400 or UVcut 500), compared with no film wrapping

## O=C([O-])CCSC[C@H]1O[C@@H]2O[C@H]3[C@H](O)[C@@H](O)[C@@H](O[C@H]4[C@H](O)[C@@H](O)[C@@H](O[C@H]5[C@H](O)[C@@H](O)[C@@H](O[C@H]6[C@H](O)[C@@H](O)[C@@H](O[C@H]7[C@H](O)[C@@H](O)[C@@H](O[C@H]8[C@H](O)[C@@H](O)[C@@H](O[C@H]9[C@H](O)[C@@H](O)[C@@H](O[C@H]1[C@H](O)[C@H]2O)O[C@@H]9CSCCC(=O)[O-])O[C@@H]8CSCCC(=O)[O-])O[C@@H]7CSCCC(=O)[O-])O[C@@H]6CSCCC(=O)[O-])O[C@@H]5CSCCC(=O)[O-])O[C@@H]4CSCCC(=O)[O-])O[C@@H]3CSCCC(=O)[O-].[Na+].[Na+].[Na+].[Na+].[Na+].[Na+].[Na+].[Na+] [スガマデクス, octakis(6-S-(2-carboxyethyl)-6-thio)cyclomaltooctaose octasodium salt]
[1]; [3]
  effect of suppressing increase of photodegradation products: 顕著に高かった
  purity of sugammadex: 純度が高く
[1]; [4]
  increase in total amount of substances other than sugammadex: 増大が抑えられており
  residual rate of sugammadex: 残存率が高かった
[1]; after light irradiation (1,200,000 lux·h, 280 W·h/m2), no film wrapping
  total amount of substances other than sugammadex: 5.12%
[1]; before light irradiation, no film wrapping, 100 mg/mL aqueous solution, pH 7-8
  total amount of substances other than sugammadex: 2.14%
[1]; chromatograms before vs after light irradiation, no film wrapping
  photodegradation of sugammadex: 光照射により分解されたことが確認された
[2]; light up to 400 nm cut, relative to sample without film wrapping
  formation of sugammadex disulfoxide (スガマデクスのジスルフィド体 in the source): フィルム包装なしのサンプルの半分程度
[2]; light up to 500 nm cut
  formation of sugammadex disulfoxide (スガマデクスのジスルフィド体 in the source): ほとんど生成されていなかった
